These are literature values, as cited in US12496345B2, “Method of treating cancer” (Intensity Therapeutics, Inc., priority 2012, dated 2025).

Assay in data set [1]: not given
This is another data set of the same source.

Assay in data set [2]: not given
The source holds these as a separate data set.

`N.N.O=C([O-])C1(C(=O)[O-])CCC1.[Pt+2]` [Carboplatin, platinum, diammine [1,1-cyclobutane-dicarboxylato (2−)-0,0′]-(SP-4-2)]: the oral bioavailability entry (carboplatin alone, highly variable) is recorded as “approximately 4%”. Also, in data set [1], the soluble in water entry is reported as “approximately 14 mg/mL”. The “pH of a 1% solution” value in data set [2] is 5-7.

Consider `O=c1[nH]cc(F)c(=O)[nH]1` [5-FU, fluorouracil], for which the oral absorption entry (in vivo, po) is listed as “not orally absorbed”.
